Results on 2 compounds are retold here after patent US5498795A, “Acetylenes disubstituted with hydroxyaryl and aryl or heteroaryl groups having retinoid-like biological activity” (Allergan, Inc., priority 1994, dated 1996).

This test relates to ornithine decarboxylase (ODC). The test can be described thus: ODC assay: inhibition of TPA induction of ornithine decarboxylase. It is filed as in vivo. The source says:
The retinoic acid-like activity of these compounds is confirmed through the classic measure of retinoic acid activity involving the effects of retinoic acid on ornithine decarboxylase. The original work on the correlation between retinoic acid and decrease in cell proliferation was done by Verma & Boutwell, Cancer Research, 1977, 37,2196-2201. That reference discloses that ornithine decarboxylase (ODC) activity increased precedent to polyamine biosynthesis. It has been established elsewhere that increases in polyamine synthesis can be correlated or associated with cellular proliferation. Thus, if ODC activity could be inhibited, cell hyperproliferation could be modulated. Although all cases for ODC activity increases are unknown, it is known that 12-0-tetradecanoylphorbol-13-acetate (TPA) induces ODC activity. Retinoic acid inhibits this induction of ODC activity by TPA. […] Activity of exemplary compounds of the present invention in the above-described ODC assay is disclosed in Table 2 which provides either […] (or other measured per cent inhibition at the indicated concentration) for the respective exemplary compound.

SMILES strings stand for the structures.

With `CC(C)(C)c1ccc(C#Cc2ccc(C(=O)O)cn2)cc1O` [Compound 20, 6-[2-[[2-t-Butyl-1-hydroxy]-5-phenyl]ethyn-1-yl]nicotinic acid], the “% of inhib” value (conc 100) came out at 64%.
For the compound `O=C(O)c1ccc(C#Cc2ccc(C34CC5CC(CC(C5)C3)C4)c(O)c2)nc1` [Compound 23, 6-[2-[[2-(1-adamantyl)-1-hydroxy]-5-phenyl]-ethyn-1-yl]nicotinic acid], the “% of inhib” value (conc 300) turned out to be 55%.
